Where “and” joins values, the source holds several entries; their conditions need not be identical. Equal entries are not always repeated. Where two headings read alike, the source gives them in different places.
What was measured:
IDE [1] = target: T1, IDE (Homo sapiens, UniProt P14735); details: cited from earlier work; for IC50: known IDE inhibitors, no reference given
[2] = system: IR autophosphorylation (Tyr 1146) in CHO-IR cells; assay: IR autophosphorylation assay (ELISA); type: cell-based, human; details: CHO-IR cells cold-loaded with insulin, 10 µM inhibitor, 5 min at 37°C
Protocol: CHO-IR cells were grown to near confluency in 6-well plates, washed, then starved for 6 h in insulin-free medium (DMEM/0.1% BSA). Cells were then cold-loaded with human insulin essentially as described. Briefly, after cooling the cells to 4°C, the medium was replaced with ice-cold HBSS/1% BSA supplemented with insulin (10 nM), incubated at 4°C for 1 h, washed 3 times with ice-cold HBSS/1% BSA. After addition of ice-cold HBSS/1% BSA supplemented with IDE inhibitors (10 µM) or DMSO, the cells were incubated at 37°C for 5 min, then rapidly cooled on ice. Cell lysates were harvested using manufacturer-provided cell-lysis buffer (Cell Signaling Technology) supplemented with additional phosphatase inhibitors (Millipore). IR autophosphorylation (Tyr 1146) and total IR levels were quantified by ELISAs (Cell Signaling Technology), and confirmed by western blotting with the same antibodies used for ELISAs or GAPDH as a loading control.

cathepsin D = target: T2, cathepsin D (Bos taurus, UniProt P80209); assay: Cathepsin D activity (Cathepsin D Assay Kit); type: biochemical
T2 construct: purchased Sigma-Aldrich
T2 sequence (P80209 45-390): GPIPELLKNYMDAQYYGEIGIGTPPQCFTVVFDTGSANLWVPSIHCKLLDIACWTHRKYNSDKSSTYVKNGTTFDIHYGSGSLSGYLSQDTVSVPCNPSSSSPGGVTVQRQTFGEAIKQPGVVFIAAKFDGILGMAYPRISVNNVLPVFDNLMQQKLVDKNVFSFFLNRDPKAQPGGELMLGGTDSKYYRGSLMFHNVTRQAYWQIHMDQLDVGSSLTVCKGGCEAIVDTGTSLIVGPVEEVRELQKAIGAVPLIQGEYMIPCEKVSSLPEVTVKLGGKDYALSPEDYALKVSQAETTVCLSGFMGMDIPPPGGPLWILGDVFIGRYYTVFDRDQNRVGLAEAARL
Protocol: Activity of cathepsin B was assessed by monitoring hydrolysis of Z-LR-AMC (Enzo Life Sciences International), that of cathepsin D using the Cathepsin D Assay Kit (Sigma-Aldrich), and that of the 20S proteasome using the 20S Proteasome Assay Kit for Drug Discovery (Enzo Life Sciences International).

CHO-IR cells [3] = assay: Cell-based extracellular insulin degradation assay, CHO-IR cells
Excerpt: (§1) Recombinant human insulin (Sigma) was applied to CHO-IR cells or HeLa cells grown to near-confluency on 96-well plates under normal cell culture conditions, and its disappearance over time in the presence of different concentrations of IDE inhibitors or vehicle was quantified using a HTRF-based insulin assay (CIS-Bio). CHO-IR cells were a generous gift from Dr. Michel Bernier (National Instutute on Aging) and HeLa cells were purchased from American Type Culture Collection.

CHO-IR cells [4] = assay: Quantification of prebound 125I-insulin catabolism; type: cell-based; details: 10 µM inhibitor, 5 min at 37°C
Protocol: Confluent monolayers of CHO-IR cells grown in 6-well culture dishes were cold loaded with 240 pM ^125I-insulin for 1 h and washed 3 times with ice-cold HBSS/1% BSA. […] Following harvesting of cells by scraping, ^125I levels were quantified by gamma counter (Beckman).

HeLa cells = assay: Cell-based extracellular insulin degradation assay, HeLa cells
Excerpt: as §1

CHO-IR cells [5] = system: CHO-IR cells
IDE [6] = target: T1, IDE; assay: In vitro IDE enzymatic assay (hydrolysis of FRET1, SP1, FAβB, 125I-insulin or insulin by HTRF); type: biochemical; parameters: made in house; host or cells: bacteria; details: for IC50: commercially available hydroxamic acids
Protocol: Degradation of unmodified recombinant human insulin (Sigma-Aldrich) and FITC-ins [28] (Invitrogen) was assessed using a homogeneous time-resolved fluorescence (HTRF)-based assay (CIS-Bio).

CHO-IR cells [7] = assay: Live-cell imaging of intracellular insulin catabolism (FITC-ins); type: cell-based; details: FITC-ins-loaded CHO-IR cells, Ii1 10 µM, 22°C
Protocol: CHO-IR cells were cultured on poly-D-lysine glass bottom culture dishes (MatTek Corp.), loaded with FITC-ins (2 µM; Invitrogen) for 2 h at 37°C, washed with Hank's balanced salt solution (HBSS), then imaged consecutively at fixed intervals by fluorescence microscopy at 22°C. Intracellular and extracellular fluorescence in the resulting images was quantified using MetaMorph software according to manufacturer's recommendations (Molecular Devices).

TACE = details: best known target TACE; no reference given; cited from earlier work
MMP-8 = details: best known target MMP-8; no reference given; cited from earlier work
MMP-13 = details: best known target MMP-13; no reference given; cited from earlier work
IDE [8] = target: T1, IDE; assay: High-throughput screening, Aβ degradation assay; type: biochemical; details: high-throughput screening hit
Excerpt: The few IDE inhibitors currently in use are generally non-selective and/or highly toxic, and all suffer from extremely low potency, requiring mM concentrations to achieve complete inhibition (Table S1). To develop improved inhibitors of IDE, we initially conducted high-throughput screening on ∼115,000 compounds, using a previously developed Aβ degradation assay. Although several inhibitors were discovered, most of these were either toxic, thiol-alkylating compounds [18] […] Among the remaining inhibitors, just a single compound, known as nullscript

IDE [9] = target: T1, IDE; assay: Cell-based assays (not shown)
MMP-2 = details: best known target MMP-2; no reference given; cited from earlier work
MMP-3 = details: best known target MMP-3; no reference given; cited from earlier work
[10] = focused library of retro-inverso peptide hydroxamates Xaa-Arg-Tyr, modification at P1', Fig. 2B, read-out: Ki

T1 sequence (P14735 whole entry): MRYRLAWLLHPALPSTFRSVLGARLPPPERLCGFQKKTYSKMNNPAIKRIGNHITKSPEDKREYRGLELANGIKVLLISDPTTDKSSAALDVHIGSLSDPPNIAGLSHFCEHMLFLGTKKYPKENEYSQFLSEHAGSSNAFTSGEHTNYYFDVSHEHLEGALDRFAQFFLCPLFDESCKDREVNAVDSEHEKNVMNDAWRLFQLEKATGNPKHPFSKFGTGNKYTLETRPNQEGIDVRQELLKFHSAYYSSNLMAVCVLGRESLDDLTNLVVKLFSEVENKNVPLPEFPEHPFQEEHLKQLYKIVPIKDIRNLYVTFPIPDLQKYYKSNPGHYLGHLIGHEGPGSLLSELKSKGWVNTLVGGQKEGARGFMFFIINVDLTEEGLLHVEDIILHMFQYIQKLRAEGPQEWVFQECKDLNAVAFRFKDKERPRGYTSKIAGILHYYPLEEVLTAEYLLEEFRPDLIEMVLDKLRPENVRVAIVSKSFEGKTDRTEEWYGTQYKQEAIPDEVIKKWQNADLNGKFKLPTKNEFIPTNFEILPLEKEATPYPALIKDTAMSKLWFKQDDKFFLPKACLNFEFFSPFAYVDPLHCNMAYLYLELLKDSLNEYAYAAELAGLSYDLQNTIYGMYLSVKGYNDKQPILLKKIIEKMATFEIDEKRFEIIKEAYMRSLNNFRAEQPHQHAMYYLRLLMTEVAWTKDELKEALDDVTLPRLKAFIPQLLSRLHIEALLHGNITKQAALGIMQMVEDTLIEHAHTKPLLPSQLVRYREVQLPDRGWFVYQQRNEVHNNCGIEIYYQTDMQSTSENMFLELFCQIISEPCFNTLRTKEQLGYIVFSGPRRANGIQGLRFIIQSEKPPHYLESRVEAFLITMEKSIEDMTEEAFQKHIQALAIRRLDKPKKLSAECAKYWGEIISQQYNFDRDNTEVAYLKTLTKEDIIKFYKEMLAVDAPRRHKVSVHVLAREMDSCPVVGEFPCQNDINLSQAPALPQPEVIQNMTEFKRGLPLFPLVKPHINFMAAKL

Compound: c1cnc2c(c1)ccc1cccnc12 [1,10 phenanthroline]
- IC50 (IDE [1]): 300000 nM

Compound: N=C(N)NCCC[C@H](NC(=O)[C@@H](CC(=O)NO)Cc1ccc2ccccc2c1)C(=O)N[C@@H](Cc1c[nH]c2ccccc12)C(=O)N[C@@H](CCC(=O)O)C(N)=O [Ii1]
- insulin-stimulated IR autophosphorylation [2]: consistently potentiated
- inhibition of cathepsin D (cathepsin D): not
- IC50 for inhibition of degradation of extracellular insulin (CHO-IR cells [3]): comparable to that obtained in vitro
- insulin catabolism (progress curve) (CHO-IR cells [3]; Ii1 10 µM): completely inhibited
- decrease of prebound 125I-insulin (CHO-IR cells [4]): inhibited completely
- IC50 for inhibition of degradation of extracellular insulin (HeLa cells): comparable to that obtained in vitro
- insulin catabolism (progress curve) (HeLa cells; Ii1 10 µM): completely inhibited
- toxicity (CHO-IR cells [5]): No toxicity
- Hill slopes for inhibition (IDE [6]; all substrates tested): < 1
- Ki (IDE [6]; conventional peptide hydroxamates, Fig. 1, read-out: Ki): 1.7 nM and ~1.7 nM
- mode of inhibition (IDE [6]; hydrolysis of Aβ): purely competitive
- mode of inhibition (IDE [6]; hydrolysis of insulin): purely competitive
- Ki (IDE [6]; ki^app, Substrate: 125I-Ins): 16.3 ± 4.2 nM
- Ki (IDE [6]; ki^app, Substrate: FAβB): 15.7 ± 2 nM
- Ki (IDE [6]; ki^app, Substrate: HTRF-Ins): 16.6 ± 3.1 nM
- Ki (IDE [6]; ki^app, Substrate: SP1): 2.55 ± 0.84 nM
- intra- and extracellular FITC fluorescence over time (CHO-IR cells [7]): remained essentially constant

Compound: CC(C)C[C@H](CC(=O)NO)C(=O)N[C@@H](Cc1ccc2ccccc2c1)C(=O)N[C@@H](C)C(=O)NCCN [TAPI-1, reference compound]
- IC50 (TACE): 100 nM
- IC50 (IDE [6]): 3000 nM

Compound: N=C(N)NCCC[C@@H](NC(=O)[C@H](N)Cc1ccc(O)cc1)C(=O)N[C@@H](CC(=O)NO)Cc1cccc2ccccc12 [1-naphthylalanine]
- Ki (IDE [6]; [10]): 700 nM

Compound: N=C(N)NCCC[C@@H](NC(=O)[C@H](N)Cc1ccc(O)cc1)C(=O)N[C@@H](CC(=O)NO)Cc1ccc(F)cc1 [4-fluorophenylalanine]
- Ki (IDE [6]; [10]): 7000 nM

Compound: N=C(N)NCCC[C@@H](NC(=O)[C@H](N)Cc1ccc(O)cc1)C(=O)N[C@@H](CC(=O)NO)Cc1ccc2ccccc2c1 [2-naphthylalanine]
- gain in potency relative to Phe at P1' (IDE [6]; retro-inverso library): ~100 fold

Compound: O=C(O)CN(CCN(CC(=O)O)CC(=O)O)CC(=O)O [EDTA]
- inhibition of IDE (IDE [1]; ref [18], [40]): does not inhibit IDE except after prolonged incubation

Compound: CC(C)C[C@H](CC(=O)NO)C(=O)N[C@H](C(=O)N[C@@H](C)C(=O)NCCN)C(C)(C)C [TAPI-2, reference compound]
- IC50 (TACE): 5000 nM
- IC50 (IDE [6]): 11000 nM

Compound: COc1ccc(S(=O)(=O)N2Cc3ccccc3C[C@@H]2C(=O)NO)cc1 [MMP-8 Inhibitor I, reference compound]
- IC50 (IDE [6]): > 100000 nM
- IC50 (MMP-8): 4 nM

Compound: CNC(=O)C(CCc1ccccc1)NC(=O)C(CC(=O)NO)CC(C)C (stereo not shown) [MMP Inhibitor III, reference compound]
- IC50 (MMP-13): 0.1 nM
- IC50 (IDE [6]): > 100000 nM

Compound: O=C(CCCN1C(=O)c2cccc3cccc(c23)C1=O)NO [Nullscript]
- IC50 values (IDE [8]): submicromolar
- effect in cell-based assays (IDE [9]): ineffective
- IC50 (IDE [6]): 900 nM

Compound: CCN1C(=O)C=CC1=O [N-ethylmaleimide]
- IC50 (IDE [1]): 220000 nM

Compound: O=C(NO)[C@@H](Cc1ccccc1)NS(=O)(=O)c1ccc(-c2ccccc2)cc1 [MMP-2/9 Inhibitor II, reference compound]
- IC50 (MMP-2): 17 nM
- IC50 (IDE [6]): > 100000 nM

Compound: N=C(N)NCCC[C@@H](NC(=O)[C@H](N)Cc1ccc(O)cc1)C(=O)N[C@@H](CC(=O)NO)Cc1cccc(F)c1 [3-fluorophenylalanine]
- Ki (IDE [6]; [10]): 7000 nM

Compound: CC(C)(C)c1ccc(C[C@H](CC(=O)NO)NC(=O)[C@@H](CCCNC(=N)N)NC(=O)[C@H](N)Cc2ccc(O)cc2)cc1 [4-(tert-butyl)-phenylalanine]
- Ki (IDE [6]; [10]): 16000 nM

Compound: COc1ccc(S(=O)(=O)N(CC(=O)NO)CC(C)C)cc1 [MMP-3 Inhibitor II, reference compound]
- IC50 (MMP-3): 130 nM
- IC50 (IDE [6]): > 100000 nM

Compound: CC(=O)N[C@H](CCC(=O)NCCNc1cccc2c(S(=O)(=O)O)cccc12)C(=O)N[C@H](Cc1ccc(O)cc1)C(=O)N[C@H](Cc1ccc(C(=O)c2ccccc2)cc1)C(=O)N[C@@H](CC(=O)NO)Cc1ccc2ccccc2c1 [ML3-XF, Hx-2Nap-Bpa-Tyr-Glu(EDANS)-Ac]
- insulin-stimulated IR autophosphorylation [2]: consistently potentiated
- decrease of prebound 125I-insulin (CHO-IR cells [4]): inhibited completely

Compound: N=C(N)NCCC[C@@H](NC(=O)[C@H](N)Cc1ccc(O)cc1)C(=O)N[C@@H](CC(=O)NO)C(c1ccccc1)c1ccccc1 [diphenylalanine]
- Ki (IDE [6]; [10]): > 500000 nM

Compound: CNC(=O)[C@H](Cc1c[nH]c2ccccc12)NC(=O)[C@@H](CC(=O)NO)CC(C)C [GM6001 (Galardin), reference compound]
- IC50 (IDE [6]): 6000 nM

Compound: CC(C)C[C@H](CC(=O)NO)C(=O)N[C@@H](Cc1ccc2ccccc2c1)C(=O)N[C@@H](C)C(N)=O [TAPI-0, reference compound]
- IC50 (MMP-13): 0.2 nM
- IC50 (IDE [6]): 9000 nM

Compound: N#Cc1ccc(-c2ccc(OCCC(=O)NO)cc2)cc1 [MMP-3 Inhibitor VII, reference compound]
- IC50 (MMP-3): 25 nM
- IC50 (IDE [6]): > 100000 nM

Source: paper PMC2866327, “Designed Inhibitors of Insulin-Degrading Enzyme Regulate the Catabolism and Activity of Insulin” (PLoS ONE, 2010)
